The text below walks through data of patent publication US20100003301A1, “Bone Defect Filler, Release-Controlled Carrier, And Their Production Methods” (The University of Tokyo, priority 2006, published 2010).

The nature of this data set: Viscosity measurement of blocking agents (LVDV digital viscometer). In kind it is physicochemical. The following applies: viscosity could not be measured. As for the experimental part: A Z printer 406 made by Z corporation was used to produce a bone filling material. “LVDV” which is a digital viscometer made by Brookfield Co., Ltd. was used to measure viscosity. A UL (ultra low viscosity) adapter was used when the viscosity was measured. Bending strength was measured by a rheometer made by Sun Science Co., Ltd.
Viscosity of blocking agents were measured by “LVDV” which is a digital viscometer made by Brookfield Co., Ltd. The results are shown in Table 2.

Consider `NC(=O)CC[C@H](N)C(=O)O` [L-glutamine], for which the dissolution in water result is “cannot be dissolved in water”.
